For two compounds, IC50 and EC50 results are on record in PMC5080355, “Interaction of the Nitrogen Regulatory Protein GlnB (PII) with Biotin Carboxyl Carrier Protein (BCCP) Controls Acetyl-CoA Levels in the Cyanobacterium Synechocystis sp. PCC 6803” (Frontiers in Microbiology, 2016).

The target in assay [1] is T1, SyGlnB (PII) in complex with SyBCCP (Synechocystis sp. PCC 6803, UniProt Q55247). Put plainly: pull-down of GlnB with His-BCCP on Ni-NTA magnetic beads, SDS-PAGE densitometry, 2-OG titration. It counts as binding. Conditions: read-out: apparent IC50. Further details: gene glnB; GlnB C-terminally Strep-tagged (pASK-IBA3glnBSc); bait His-tagged BCCP (pET15accB), biotinylated with E. coli BirA; both expressed in E. coli and purified; GlnB homotrimer; with Biotin carboxyl carrier protein of acetyl-CoA carboxylase.

For assay [2], the target named is T2, SyGlnB (PII) in complex with SyBCCP (Synechocystis sp. PCC 6803, UniProt Q55247, S49C).
T2 construct: gene glnB
Put plainly: biochemical.

Assay [3] concerns the target T3, SyGlnB (PII) in complex with SyBCCP (Synechocystis sp. PCC 6803, UniProt Q55247, S49D).
T3 construct: gene glnB
Put plainly: biochemical.

For assay [4], the target named is T1, SyGlnB (PII) in complex with SyBCCP. In words: biochemical. Further details: gene glnB.

The structures appear in SMILES notation.

Broadly, the IC50 is the concentration that gives 50% inhibition. A word on the EC50: it is the concentration giving half of the maximal effect. Low values mean higher potency in that assay, high ones lower potency in that assay.

T1 sequence (Q55247 whole entry): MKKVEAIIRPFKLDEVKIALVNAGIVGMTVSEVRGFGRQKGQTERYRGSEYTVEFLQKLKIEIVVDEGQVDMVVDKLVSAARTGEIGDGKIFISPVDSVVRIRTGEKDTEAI
T1 sequence (Q55120 1-154 partner): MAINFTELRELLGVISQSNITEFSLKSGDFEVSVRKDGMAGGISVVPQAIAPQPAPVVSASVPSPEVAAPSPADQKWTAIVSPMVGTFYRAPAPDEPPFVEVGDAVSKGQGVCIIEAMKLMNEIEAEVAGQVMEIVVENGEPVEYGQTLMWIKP
T2 sequence (Q55120 entry or part of it, stated change not applied): as the sequence (Q55120 1-154 partner) above
T2 sequence (Q55247 whole entry S49C): as the sequence (Q55247 whole entry) above, with S49C counted along it
T3 sequence (Q55247 whole entry S49D): as the sequence (Q55247 whole entry) above, with S49D counted along it
T3 sequence (Q55120 entry or part of it, stated change not applied, further chain): as the sequence (Q55120 1-154 partner) above

As for `O=C(O)CCC(=O)C(=O)O` [2-OG], the IC50 in assay [1] was 41.3 µM.

Consider `Nc1ncnc2c1ncn2[C@@H]1O[C@H](COP(=O)(O)OP(=O)(O)OP(=O)(O)O)[C@@H](O)[C@H]1O` [ATP], for which the figures for the EC50 in assay [2], in assay [3] and in assay [4] were 143 µM, 231 µM and 68 µM, respectively.
